# From US4585877A, “Process for preparing 1,8-diethyl-1,3,4,9-tetrahydropyrano(3,4-b)-indole-1-acetic acid, etodolac” (American Home Products Corporation, priority 1985, dated 1986)
# Like-named read-outs stand apart in the source and are kept apart here.
# How the values were obtained:
# adjuvant edema = assay: Preventive Adjuvant Edema test (antiinflammatory activity); type: in vivo; conditions: po
# [1] = test system: Phenylquinone-induced writhing; assay: Effects on Phenylquinone-Induced Writhing in Mice test (analgesic activity); type: in vivo; conditions: Mus musculus, po, read-out: antinociceptive ED50
SMILES,ED50 (adjuvant edema) [mg/kg],ED50 [1] [mg/kg],"ED50 (adjuvant edema; Preventive Adjuvant-Edema, p.o., read-out: ED50) [mg/kg]","ED50 ([1]; Phenylquinone-induced writhing in mice, p.o.) [mg/kg]"
CC(=O)Oc1ccccc1C(=O)O [aspirin],184,54,,
"CCc1cccc2c3c([nH]c12)C(CC)(CC(=O)O)OCC3 (stereo not shown) [etodolac, 1,8-Diethyl-1,3,4,9-tetrahydropyrano[3,4-b]indole-1-acetic Acid]",,,4,154
